Measurements reported in ChEMBL document CHEMBL3745652, “Synthesis and evaluation of pretomanid (PA-824) oxazolidinone hybrids” (Bioorg Med Chem Lett, 2016).
Values after ≈ are worked out from the molar mass of the structure shown. Active and inactive are the calls of the source. The rule behind the calls is not given here.

Key:
[1] = Apparent permeability from basolateral to apical side in human Caco2 cells; assay type: ADME, cell-based; settings: caco-2
[2] = tested on: Streptococcus pneumoniae; assay: Antimicrobial activity against Streptococcus pneumoniae; assay type: functional, organism-based
[3] = tested on: Acinetobacter baumannii; assay: Antimicrobial activity against Acinetobacter baumannii; assay type: functional, organism-based
[4] = tested on: Escherichia coli; assay: Antimicrobial activity against Escherichia coli; assay type: functional, organism-based
[5] = tested on: Mycobacterium tuberculosis; assay: Antimicrobial activity against Mycobacterium tuberculosis H37Rv infected in C57BL/6 mouse assessed as reduction in bacterial load at 100 mg/kg, po after 28 days; assay type: functional, organism-based
[6] = tested on: Streptococcus pyogenes; assay: Antimicrobial activity against Streptococcus pyogenes; assay type: functional, organism-based
[7] = tested on: Bacillus anthracis; assay: Antimicrobial activity against Bacillus anthracis; assay type: functional, organism-based
[8] = Plasma protein binding in human; assay type: ADME, cell-free
[9] = tested on: Mus musculus; assay: Toxicity in C57BL/6 mouse at 300 mg/kg, po after 3 days; assay type: organism-based; settings: in vivo, 72 h
[10] = AUC(infinity) in C57BL/6 mouse at 10 mg/kg, iv; assay type: ADME, organism-based; set-up: dose 10 mg/kg, time infinity, route intravenous; settings: in vivo
[11] = Half life in mouse liver microsomes; assay type: ADME; settings: for t1/2: microsomes
[12] = tested on: Staphylococcus aureus; assay: Antimicrobial activity against Staphylococcus aureus; assay type: functional, organism-based
[13] = Half life in C57BL/6 mouse at 10 mg/kg, iv; assay type: ADME, organism-based; settings: in vivo
[14] = Clearance in C57BL/6 mouse at 10 mg/kg, iv; assay type: ADME, organism-based; settings: in vivo
[15] = tested on: Klebsiella pneumoniae; assay: Antimicrobial activity against Klebsiella pneumoniae; assay type: functional, organism-based
[16] = Apparent permeability from apical to basolateral side in human Caco2 cells; assay type: ADME, cell-based; settings: caco-2
[17] = tested on: Vero; assay: Cytotoxicity against African green monkey Vero cells by cell titer glo assay; assay type: cell-based; settings: Chlorocebus sabaeus
[18] = tested on: Bacillus subtilis; assay: Antimicrobial activity against Bacillus subtilis; assay type: functional, organism-based
[19] = Volume of distribution at steady state in C57BL/6 mouse at 10 mg/kg, iv; assay type: ADME, organism-based; settings: in vivo, read-out: Vdss
[20] = tested on: Enterococcus faecalis; assay: Antimicrobial activity against Enterococcus faecalis; assay type: functional, organism-based
[21] = tested on: Mycobacterium tuberculosis; assay: Antimicrobial activity against Mycobacterium tuberculosis H37Rv assessed as growth inhibition after 7 days by microbroth dilution method; assay type: functional; settings: 168 h

With `O=[N+]([O-])c1cn2c(n1)OC[C@@H](OCc1ccc(N3CCOCC3)c(F)c1)C2` the Papp [1] was 33.28 ×10⁻⁶ cm/s, the Activity [2] was “inactive” and the Activity [3] was “inactive”. The Activity [4] was “inactive”, the Activity [5] was “inactive” and the Activity [6] was “inactive”. The Activity [7] was “inactive”, the PPB [8] was 51.3% and the Activity [9] was “Non-toxic”. The AUC(0-inf) [10] was 10100 ng·h/mL, the t1/2 [11] was 462 min and the Activity [12] was “inactive”. For the same compound, the half-life [13] was 58.8 min, the clearance [14] was 16.5 mL/min/kg and the Activity [15] was “inactive”. The Papp [16] was 43.33 ×10⁻⁶ cm/s, the IC50 [17] was 23.1 µg/mL (≈ 61.1 µM) and the Activity [18] was “inactive”. The Vd [19] was 1.16 L/kg and the Activity [20] was “inactive”.

For `O=C1CSCCN1c1ccc(CO[C@@H]2COc3nc([N+](=O)[O-])cn3C2)cn1`, the Papp [1] was 31.44 ×10⁻⁶ cm/s, the Activity [2] was “inactive” and the Activity [3] was “inactive”. The Activity [4] was “inactive”, the Activity [6] was “inactive” and the Activity [7] was “inactive”. For the same compound, the PPB [8] was 32.1%, the t1/2 [11] was 37.8 min and the Activity [12] was “inactive”. The MIC [21] was 50 µg/mL (≈ 128 µM), the Activity [15] was “inactive” and the Papp [16] was 40 ×10⁻⁶ cm/s. The IC50 [17] was 15.3 µg/mL (≈ 39.1 µM), the Activity [18] was “inactive” and the Activity [20] was “inactive”.

With `O=[N+]([O-])c1cn2c(n1)OC[C@@H](OCc1ccc(N3CCCCC3)c(F)c1)C2` the Papp [1] was 28.47 ×10⁻⁶ cm/s, the Activity [2] was “inactive” and the Activity [3] was “inactive”. The Activity [4] was “inactive”, the Activity [6] was “inactive” and the Activity [7] was “inactive”. The PPB [8] was 85.6%, the t1/2 [11] was 24.6 min and the Activity [12] was “inactive”. For the same compound, the MIC [21] was < 0.2 µg/mL, the Activity [15] was “inactive” and the Papp [16] was 35.46 ×10⁻⁶ cm/s. The IC50 [17] was 56.2 µg/mL (≈ 149 µM), the Activity [18] was “inactive” and the Activity [20] was “inactive”.

In the case of `O=C1CCCCN1c1ccc(CO[C@@H]2COc3nc([N+](=O)[O-])cn3C2)cc1`, the Papp [1] is reported as 34.2 ×10⁻⁶ cm/s, the Activity [2] is reported as “inactive” and the Activity [3] is reported as “inactive”. For the same compound, the Activity [4] was “inactive”, the Activity [6] was “inactive” and the Activity [7] was “inactive”. The PPB [8] was 66.4%, the t1/2 [11] was 402 min and the Activity [12] was “inactive”. The MIC [21] was 1.56 µg/mL (≈ 4.19 µM), the Activity [15] was “inactive” and the Papp [16] was 47.25 ×10⁻⁶ cm/s. The IC50 [17] was > 100 µg/mL, the Activity [18] was “inactive” and the Activity [20] was “inactive”.

For `O=[N+]([O-])c1cn2c(n1)OC[C@@H](OCc1ccc(OC(F)(F)F)cc1)C2` [PRETOMANID], the Papp [1] was 13.14 ×10⁻⁶ cm/s, the Activity [2] was “inactive” and the Activity [3] was “inactive”. The Activity [4] was “inactive”, the Activity [6] was “inactive” and the Activity [7] was “inactive”. The PPB [8] was 92.9%, the half-life ([11]; liver microsomes) was 486 min and the Activity [12] was “inactive”. The MIC [21] was 0.39 µg/mL (≈ 1.09 µM), the Activity [15] was “inactive” and the Papp [16] was 31.58 ×10⁻⁶ cm/s. The IC50 [17] was 44 µg/mL (≈ 122 µM), the Activity [18] was “inactive” and the Activity [20] was “inactive”.

With `O=[N+]([O-])c1cn2c(n1)OC[C@@H](OCc1ccc(N3CCSCC3)cc1)C2` the Papp [1] was 26.13 ×10⁻⁶ cm/s, the Activity [2] was “inactive” and the Activity [3] was “inactive”. The Activity [4] was “inactive”, the Activity [6] was “inactive” and the Activity [7] was “inactive”. The PPB [8] was 74.5%, the t1/2 [11] was 4.2 min and the Activity [12] was “inactive”. The MIC [21] was 6.25 µg/mL (≈ 16.6 µM), the Activity [15] was “inactive” and the Papp [16] was 26.68 ×10⁻⁶ cm/s. For the same compound, the IC50 [17] was 13.7 µg/mL (≈ 36.4 µM), the Activity [18] was “inactive” and the Activity [20] was “inactive”.

With `O=C1CSCCN1c1ccc(CO[C@@H]2COc3nc([N+](=O)[O-])cn3C2)cc1F` the Papp [1] was 37.05 ×10⁻⁶ cm/s, the Activity [2] was “inactive” and the Activity [3] was “inactive”. The Activity [4] was “inactive”, the Activity [6] was “inactive” and the Activity [7] was “inactive”. For the same compound, the PPB [8] was 77.6%, the t1/2 [11] was 36 min and the Activity [12] was “inactive”. For the same compound, the MIC [21] was 50 µg/mL (≈ 122 µM), the Activity [15] was “inactive” and the Papp [16] was 33.39 ×10⁻⁶ cm/s. For the same compound, the IC50 [17] was > 100 µg/mL, the Activity [18] was “inactive” and the Activity [20] was “inactive”.

For `O=[N+]([O-])c1cn2c(n1)OC[C@@H](OCc1ccc(N3CCOCC3)cc1)C2`, the Papp [1] was 32.25 ×10⁻⁶ cm/s, the Activity [2] was “inactive” and the Activity [3] was “inactive”. For the same compound, the Activity [4] was “inactive”, the Activity [6] was “inactive” and the Activity [7] was “inactive”. For the same compound, the PPB [8] was 39.4%, the t1/2 [11] was 498 min and the Activity [12] was “inactive”. The MIC [21] was 3.13 µg/mL (≈ 8.69 µM), the Activity [15] was “inactive” and the Papp [16] was 41.49 ×10⁻⁶ cm/s. The IC50 [17] was 42.3 µg/mL (≈ 117 µM), the Activity [18] was “inactive” and the Activity [20] was “inactive”.
